Data reported in ChEMBL document CHEMBL4219148, “Discovery of a highly potent orally bioavailable imidazo-[1, 2-a]pyrazine Aurora inhibitor” (Bioorg Med Chem Lett, 2018).
In brackets after ≈: the same amount, converted by molar mass.

Columns and labels:
[1] = Protein binding in mouse plasma; assay type: ADME, cell-free; details: read-out: PPB (converted)
[2] = AUC (0 to 24 hrs) in mouse at 50 mg/kg, po; assay type: ADME, organism-based; design: time < 24 hr, dose 50 mg/kg, route oral; details: in vivo
Aurora kinase B = Aurora kinase B (Homo sapiens, UniProt Q96GD4); experiment: Binding affinity to Aurora B (unknown origin) after 45 mins by fluorescence-based thermal stability shift assay
Aurora kinase B, sequence (Q96GD4 whole entry): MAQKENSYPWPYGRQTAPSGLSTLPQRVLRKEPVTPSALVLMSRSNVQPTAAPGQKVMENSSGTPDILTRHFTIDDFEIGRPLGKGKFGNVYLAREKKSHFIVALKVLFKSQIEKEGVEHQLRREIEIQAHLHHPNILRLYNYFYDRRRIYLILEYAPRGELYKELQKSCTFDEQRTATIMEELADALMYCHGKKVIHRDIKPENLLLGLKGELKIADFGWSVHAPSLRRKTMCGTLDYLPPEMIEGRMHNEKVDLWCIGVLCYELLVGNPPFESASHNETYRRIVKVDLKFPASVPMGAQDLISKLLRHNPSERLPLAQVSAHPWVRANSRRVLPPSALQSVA

[3] = AUC (0 to 48 hrs) in dog at 3 mg/kg, po; assay type: ADME, organism-based, Canis lupus familiaris; design: dose 3 mg/kg, time < 48 hr, route oral; details: in vivo
[4] = Half life in mouse at 3 mg/kg, iv; assay type: ADME, organism-based; details: in vivo
[5] = Protein binding in human plasma; assay type: ADME, cell-free; details: read-out: PPB (converted)
[6] = Volume of distribution in rat at 1 mg/kg, iv; assay type: ADME, organism-based; details: in vivo
[7] = AUC (0 to 48 hrs) in rat at 1 mg/kg, iv; assay type: ADME, organism-based; design: time < 48 hr, dose 1 mg/kg, route intravenous; details: in vivo
[8] = Oral bioavailability in monkey at 3 mg/kg; assay type: ADME, organism-based, Macaca mulatta; details: rhesus monkey, in vivo
[9] = AUC (0 to 48 hrs) in monkey at 1 mg/kg, iv; assay type: ADME, organism-based, Macaca mulatta; design: time < 48 hr, dose 1 mg/kg, route intravenous; details: rhesus monkey, in vivo
[10] = Volume of distribution in mouse at 3 mg/kg, iv; assay type: ADME, organism-based; details: in vivo
Cytochrome P450 2C9 = Cytochrome P450 2C9 (Homo sapiens, UniProt P11712); experiment: Inhibition of CYP2C9 in human liver microsomes; assay type: ADME
Cytochrome P450 2C9, sequence (P11712 whole entry): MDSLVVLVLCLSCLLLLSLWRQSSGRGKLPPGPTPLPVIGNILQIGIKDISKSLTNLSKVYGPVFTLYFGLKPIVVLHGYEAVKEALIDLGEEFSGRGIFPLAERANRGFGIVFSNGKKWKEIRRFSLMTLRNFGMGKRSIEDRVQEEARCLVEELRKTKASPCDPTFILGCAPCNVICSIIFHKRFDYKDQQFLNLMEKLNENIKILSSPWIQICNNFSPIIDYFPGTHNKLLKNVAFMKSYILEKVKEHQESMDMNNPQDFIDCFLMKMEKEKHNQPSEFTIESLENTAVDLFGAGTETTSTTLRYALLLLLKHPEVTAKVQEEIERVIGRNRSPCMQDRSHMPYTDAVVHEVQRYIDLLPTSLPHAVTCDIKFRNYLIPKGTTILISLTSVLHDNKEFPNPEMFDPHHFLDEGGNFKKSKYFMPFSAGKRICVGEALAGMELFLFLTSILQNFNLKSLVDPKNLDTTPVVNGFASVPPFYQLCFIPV

[11] = Kinetic solubility of the compound in sodium phosphate buffer/2% DMSO at pH 7.4 by static light scattering method; assay type: physicochemical; details: read-out: Kinetic_solubility
[12] = Oral bioavailability in dog at 3 mg/kg; assay type: ADME, organism-based, Canis lupus familiaris; details: in vivo
Aurora kinase A = biological target: T1, Aurora kinase A (Homo sapiens, UniProt O14965); experiment: Binding affinity to Aurora A (unknown origin) after 45 mins by fluorescence-based thermal stability shift assay
T1 sequence (O14965 whole entry): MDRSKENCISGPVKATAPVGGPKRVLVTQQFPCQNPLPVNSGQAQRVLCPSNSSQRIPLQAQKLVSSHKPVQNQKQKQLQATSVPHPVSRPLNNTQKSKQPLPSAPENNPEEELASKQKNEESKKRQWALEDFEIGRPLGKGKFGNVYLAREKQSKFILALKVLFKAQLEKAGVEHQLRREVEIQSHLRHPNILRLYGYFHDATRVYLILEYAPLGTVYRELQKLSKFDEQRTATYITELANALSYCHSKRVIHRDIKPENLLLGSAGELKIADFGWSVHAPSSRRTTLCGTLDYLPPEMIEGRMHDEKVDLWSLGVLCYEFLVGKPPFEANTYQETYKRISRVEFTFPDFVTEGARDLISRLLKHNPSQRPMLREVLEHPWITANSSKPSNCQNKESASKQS

[13] = Volume of distribution in dog at 1 mg/kg, iv; assay type: ADME, organism-based, Canis lupus familiaris; details: in vivo
[14] = biological target: Testis-specific serine/threonine-protein kinase 2 (Homo sapiens, UniProt Q96PF2); experiment: Inhibition of TSSK2 (unknown origin)
Testis-specific serine/threonine-protein kinase 2, sequence (Q96PF2 whole entry): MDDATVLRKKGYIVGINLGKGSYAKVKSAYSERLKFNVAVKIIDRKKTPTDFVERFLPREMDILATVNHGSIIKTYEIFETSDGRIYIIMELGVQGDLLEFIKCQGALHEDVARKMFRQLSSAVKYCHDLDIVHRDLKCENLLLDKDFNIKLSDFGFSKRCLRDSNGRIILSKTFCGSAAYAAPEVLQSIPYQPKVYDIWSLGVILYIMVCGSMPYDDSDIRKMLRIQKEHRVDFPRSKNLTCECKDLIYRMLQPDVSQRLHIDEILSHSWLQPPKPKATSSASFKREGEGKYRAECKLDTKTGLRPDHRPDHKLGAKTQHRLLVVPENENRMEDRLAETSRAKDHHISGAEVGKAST

[15] = AUC (0 to 48 hrs) in rat at 3 mg/kg, po; assay type: ADME, organism-based; design: dose 3 mg/kg, time < 48 hr, route oral; details: in vivo
[16] = biological target: Serine/threonine-protein kinase Nek2 (Homo sapiens, UniProt P51955); experiment: Inhibition of NEK2 (unknown origin)
Serine/threonine-protein kinase Nek2, sequence (P51955 whole entry): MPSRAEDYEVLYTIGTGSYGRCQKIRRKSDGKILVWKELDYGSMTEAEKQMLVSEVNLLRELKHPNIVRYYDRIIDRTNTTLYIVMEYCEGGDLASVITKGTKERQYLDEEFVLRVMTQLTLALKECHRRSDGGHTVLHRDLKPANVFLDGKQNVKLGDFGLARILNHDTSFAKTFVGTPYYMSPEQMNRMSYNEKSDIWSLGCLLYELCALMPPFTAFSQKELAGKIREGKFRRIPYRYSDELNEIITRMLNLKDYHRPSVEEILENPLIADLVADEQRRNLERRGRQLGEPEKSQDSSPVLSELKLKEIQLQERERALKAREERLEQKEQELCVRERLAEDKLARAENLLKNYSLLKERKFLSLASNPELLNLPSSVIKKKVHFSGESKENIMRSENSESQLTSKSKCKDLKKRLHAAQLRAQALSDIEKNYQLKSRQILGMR

[17] = Clearance in dog at 1 mg/kg, iv; assay type: ADME, organism-based, Canis lupus familiaris; details: in vivo
[18] = Volume of distribution in monkey at 1 mg/kg, iv; assay type: ADME, organism-based, Macaca mulatta; details: rhesus monkey, in vivo
Cytochrome P450 2D6 = Cytochrome P450 2D6 (Homo sapiens, UniProt P10635); experiment: Inhibition of CYP2D6 in human liver microsomes; assay type: ADME
Cytochrome P450 2D6, sequence (P10635 whole entry): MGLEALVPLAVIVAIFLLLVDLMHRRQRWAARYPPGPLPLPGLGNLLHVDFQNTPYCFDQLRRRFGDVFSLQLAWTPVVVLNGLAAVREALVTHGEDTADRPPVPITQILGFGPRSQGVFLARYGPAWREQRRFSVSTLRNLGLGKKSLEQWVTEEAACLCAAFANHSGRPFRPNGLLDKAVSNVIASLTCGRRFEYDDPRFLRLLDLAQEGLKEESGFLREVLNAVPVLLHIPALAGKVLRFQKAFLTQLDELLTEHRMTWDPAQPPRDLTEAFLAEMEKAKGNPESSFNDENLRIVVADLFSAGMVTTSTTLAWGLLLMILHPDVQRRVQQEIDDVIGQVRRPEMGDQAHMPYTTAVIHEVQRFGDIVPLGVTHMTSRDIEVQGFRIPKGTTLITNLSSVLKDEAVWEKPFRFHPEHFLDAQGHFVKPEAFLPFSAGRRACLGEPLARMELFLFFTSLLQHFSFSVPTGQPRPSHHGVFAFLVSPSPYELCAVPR

[19] = Clearance in rat at 1 mg/kg, iv; assay type: ADME, organism-based; details: in vivo
[20] = Half life in dog at 1 mg/kg, iv; assay type: ADME, organism-based, Canis lupus familiaris; details: in vivo
[21] = Protein binding in rat plasma; assay type: ADME, cell-free; details: read-out: PPB (converted)
[22] = Oral bioavailability in mouse at 50 mg/kg; assay type: ADME, organism-based; details: in vivo
[23] = Clearance in mouse at 3 mg/kg, iv; assay type: ADME, organism-based; details: in vivo
[24] = biological target: Ribosomal protein S6 kinase alpha-3 (Homo sapiens, UniProt P51812); experiment: Inhibition of RSK2 (unknown origin)
Ribosomal protein S6 kinase alpha-3, sequence (P51812 whole entry): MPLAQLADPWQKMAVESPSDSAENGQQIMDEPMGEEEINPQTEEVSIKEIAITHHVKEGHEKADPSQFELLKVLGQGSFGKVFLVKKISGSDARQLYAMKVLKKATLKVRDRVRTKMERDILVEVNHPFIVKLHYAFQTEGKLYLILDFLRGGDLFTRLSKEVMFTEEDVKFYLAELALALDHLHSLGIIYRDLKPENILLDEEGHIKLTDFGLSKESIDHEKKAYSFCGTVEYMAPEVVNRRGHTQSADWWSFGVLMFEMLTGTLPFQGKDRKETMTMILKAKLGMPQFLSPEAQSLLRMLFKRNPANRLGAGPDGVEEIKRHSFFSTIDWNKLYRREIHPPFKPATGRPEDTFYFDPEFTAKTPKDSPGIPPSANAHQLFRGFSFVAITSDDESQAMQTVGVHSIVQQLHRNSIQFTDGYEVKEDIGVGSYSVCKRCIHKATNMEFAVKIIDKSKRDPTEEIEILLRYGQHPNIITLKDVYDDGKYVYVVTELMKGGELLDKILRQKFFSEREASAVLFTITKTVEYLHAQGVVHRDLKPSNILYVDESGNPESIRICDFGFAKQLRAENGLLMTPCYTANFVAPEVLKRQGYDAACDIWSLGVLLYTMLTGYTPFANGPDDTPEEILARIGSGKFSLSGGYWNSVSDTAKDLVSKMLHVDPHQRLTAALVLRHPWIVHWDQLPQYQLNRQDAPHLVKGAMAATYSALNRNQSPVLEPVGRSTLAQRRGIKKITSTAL

[25] = AUC (0 to 24 hrs) in mouse at 3 mg/kg, iv; assay type: ADME, organism-based; design: time < 24 hr, dose 3 mg/kg, route intravenous; details: in vivo
[26] = AUC (0 to 6 hrs) in rat at 10 mg/kg, po; assay type: ADME, organism-based; design: time < 6 hr, dose 10 mg/kg, route oral; details: in vivo
Cytochrome P450 3A4 = Cytochrome P450 3A4 (Homo sapiens, UniProt P08684); experiment: Inhibition of CYP3A4 in human liver microsomes; assay type: ADME
Cytochrome P450 3A4, sequence (P08684 whole entry): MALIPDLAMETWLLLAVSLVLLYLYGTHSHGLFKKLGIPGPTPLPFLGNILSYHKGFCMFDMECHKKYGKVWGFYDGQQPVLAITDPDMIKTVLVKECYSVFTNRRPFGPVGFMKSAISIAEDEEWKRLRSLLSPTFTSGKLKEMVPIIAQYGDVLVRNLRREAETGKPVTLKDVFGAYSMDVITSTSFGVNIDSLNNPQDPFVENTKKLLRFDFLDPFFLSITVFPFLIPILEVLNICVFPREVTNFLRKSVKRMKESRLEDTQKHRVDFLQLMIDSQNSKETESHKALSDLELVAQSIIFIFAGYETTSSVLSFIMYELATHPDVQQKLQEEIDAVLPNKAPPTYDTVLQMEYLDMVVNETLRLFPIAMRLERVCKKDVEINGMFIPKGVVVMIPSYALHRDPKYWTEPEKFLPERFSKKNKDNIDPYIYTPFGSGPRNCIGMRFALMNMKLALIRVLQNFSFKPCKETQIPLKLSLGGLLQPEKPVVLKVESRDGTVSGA

[27] = Half life in monkey at 1 mg/kg, iv; assay type: ADME, organism-based, Macaca mulatta; details: rhesus monkey, in vivo
[28] = AUC (0 to 48 hrs) in dog at 1 mg/kg, iv; assay type: ADME, organism-based, Canis lupus familiaris; design: dose 1 mg/kg, time < 48 hr, route intravenous; details: in vivo
[29] = Half life in rat at 1 mg/kg, iv; assay type: ADME, organism-based; details: in vivo
[30] = Oral bioavailability in rat at 3 mg/kg; assay type: ADME, organism-based; details: in vivo
[31] = Intrinsic clearance in cryopreserved rat hepatocytes assessed per million cells; assay type: ADME, cell-based, Hepatocyte; details: read-out: CLH
A2780 [32] = experiment: Antitumor activity against human A2780 cells xenografted in nu/nu mouse assessed as tumor growth inhibition at 25 mg/kg, po qd for 3 days; assay type: functional; details: 72 h, read-out: TGI
[33] = Intrinsic clearance in cryopreserved human hepatocytes assessed per million cells; assay type: ADME, cell-based, Hepatocyte; details: read-out: CLH
[34] = Intrinsic clearance in cryopreserved monkey hepatocytes assessed per million cells; assay type: ADME, cell-based, Macaca mulatta, Hepatocyte; details: rhesus monkey, read-out: CLH
[35] = Volume of distribution in rat at 10 mg/kg, iv; assay type: ADME, organism-based; details: in vivo
[36] = Clearance in rat at 10 mg/kg, iv; assay type: ADME, organism-based; details: in vivo
[37] = biological target: Ribosomal protein S6 kinase; experiment: Inhibition of S6K (unknown origin); assay type: protein assay, Homo sapiens
[38] = Oral bioavailability in rat at 30 mg/kg; assay type: ADME, organism-based; details: in vivo
Mus musculus [39] = experiment: Toxicity in nu/nu mouse xenografted with human A2780 cells assessed as body weight loss at 10 mg/kg, po bid after 3 days; assay type: organism-based; details: in vivo, 72 h
[40] = biological target: Interleukin-1 receptor-associated kinase 4 (Homo sapiens, UniProt Q9NWZ3); experiment: Inhibition of IRAK4 (unknown origin)
Interleukin-1 receptor-associated kinase 4, sequence (Q9NWZ3 whole entry): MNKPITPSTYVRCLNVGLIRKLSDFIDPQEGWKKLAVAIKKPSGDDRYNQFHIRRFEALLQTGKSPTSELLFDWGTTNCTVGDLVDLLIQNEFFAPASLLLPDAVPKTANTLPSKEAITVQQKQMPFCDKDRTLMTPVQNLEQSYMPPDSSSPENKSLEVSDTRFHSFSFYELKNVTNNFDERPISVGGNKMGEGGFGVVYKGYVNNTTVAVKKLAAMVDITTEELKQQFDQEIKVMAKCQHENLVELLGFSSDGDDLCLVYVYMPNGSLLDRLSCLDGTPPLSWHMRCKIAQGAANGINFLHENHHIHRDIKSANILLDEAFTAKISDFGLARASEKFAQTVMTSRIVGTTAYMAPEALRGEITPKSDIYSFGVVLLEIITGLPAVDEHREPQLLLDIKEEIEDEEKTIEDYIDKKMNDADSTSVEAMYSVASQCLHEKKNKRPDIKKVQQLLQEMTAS

A2780 [41] = experiment: Antitumor activity against human A2780 cells xenografted in nu/nu mouse assessed as tumor growth inhibition at 10 mg/kg, po bid for 3 days; assay type: functional; details: 72 h, read-out: TGI
[42] = Oral bioavailability in monkey at 10 mg/kg; assay type: ADME, organism-based, Macaca mulatta; details: rhesus monkey, in vivo
[43] = AUC (0 to 24 hrs) in rat at 10 mg/kg, iv; assay type: ADME, organism-based; design: time < 24 hr, dose 10 mg/kg, route intravenous; details: in vivo
[44] = Half life in rat at 10 mg/kg, iv; assay type: ADME, organism-based; details: in vivo
[45] = AUC (0 to 48 hrs) in monkey at 10 mg/kg, po; assay type: ADME, organism-based, Macaca mulatta; design: time < 48 hr, dose 10 mg/kg, route oral; details: rhesus monkey, in vivo
A2780 [46] = experiment: Antitumor activity against human A2780 cells xenografted in nu/nu mouse assessed as tumor growth inhibition at 10 mg/kg, ip bid for 3 days; assay type: functional; details: 72 h, read-out: TGI
[47] = Intrinsic clearance in cryopreserved dog hepatocytes assessed per million cells; assay type: ADME, cell-based, Canis lupus familiaris, Hepatocyte; details: read-out: CLH
Mus musculus [48] = experiment: Toxicity in nu/nu mouse xenografted with human A2780 cells assessed as body weight loss at 25 mg/kg, po qd after 3 days; assay type: organism-based; details: in vivo, 72 h
Rattus norvegicus = experiment: AUC (0 to 24 hrs) in rat at 30 mg/kg, po; assay type: ADME, organism-based; design: time < 24 hr, dose 30 mg/kg, route oral; details: in vivo, 24 h
[49] = Equilibrium solubility of the compound in citrate buffer at pH 5.3 by HPLC method; assay type: physicochemical

Cc1cn2c(-c3cn[nH]c3)cnc2c(Nc2cc(Cc3ccccn3)ns2)n1
fraction unbound [1]: 0.028 | AUC(0-t) at 24 h [2]: 14.1 µM·h | Kd (Aurora kinase B): 0.1 nM | AUC(0-t) at 48 h [3]: 4.1 µM·h | half-life [4]: 12 min | fraction unbound [5]: 0.009 | Vd [6]: 0.7 L/kg | AUC(0-t) at 48 h [7]: 2.8 µM·h | bioavailability [8]: 0% | AUC(0-t) at 48 h [9]: 1.7 µM·h | Vd [10]: 1.6 L/kg | IC50 (Cytochrome P450 2C9): > 20 µM | solubility kinetic [11]: 20 µM (≈ 7.77 µg/mL) | bioavailability [12]: 15% | Kd (Aurora kinase A): 0.01 nM | Vd [13]: 0.2 L/kg | IC50 [14]: > 500 nM | AUC(0-t) at 48 h [15]: 0.8 µM·h | IC50 [16]: > 500 nM | clearance [17]: 5 mL/min/kg | Vd [18]: 1 L/kg | IC50 (Cytochrome P450 2D6): > 20 µM | clearance [19]: 15 mL/min/kg | half-life [20]: 48 min | fraction unbound [21]: 0.004 | bioavailability [22]: 77% | clearance [23]: 118 mL/min/kg | IC50 [24]: 260 nM | AUC(0-t) at 24 h [25]: 1.1 µM·h | AUC(0-t) at 6 h [26]: 17.7 µM·h | IC50 (Cytochrome P450 3A4): > 20 µM | half-life [27]: 30 min | AUC(0-t) at 48 h [28]: 9.2 µM·h | half-life [29]: 42 min | bioavailability [30]: 10%

CCN(CCO)Cc1cc(Nc2nc(C)cn3c(-c4cn[nH]c4)cnc23)sn1
IC50 [14]: > 500 nM | IC50 [16]: > 500 nM | IC50 [24]: 180 nM

Cc1cn2c(-c3cn[nH]c3)cnc2c(Nc2cc(C(NC(C)(C)C)c3ccccn3)ns2)n1 (single isomer, unassigned; (+))
fraction unbound [1]: 0.028 | hepatocyte CLint [31]: 11.5 µL/min/1e6 cells | inhibition in vivo at 25 mg/kg (A2780 [32]): 86% | hepatocyte CLint [33]: 11.8 µL/min/1e6 cells | AUC(0-t) at 24 h [2]: 23.5 µM·h | Kd (Aurora kinase B): 0.01 nM | AUC(0-t) at 48 h [3]: 10.1 µM·h | half-life [4]: 108 min | hepatocyte CLint [34]: 27.6 µL/min/1e6 cells | fraction unbound [5]: 0.012 | Vd [35]: 2.5 L/kg | AUC(0-t) at 48 h [9]: 5 µM·h | Vd [10]: 5.3 L/kg | clearance [36]: 11 mL/min/kg | IC50 (Cytochrome P450 2C9): 6 µM | IC50 [37]: > 1 µM | bioavailability [38]: 40% | bioavailability [12]: 86% | Kd (Aurora kinase A): 0.01 nM | Vd [13]: 3.7 L/kg | clearance [17]: 9.4 mL/min/kg | Activity (Mus musculus [39]): 10% | IC50 [40]: 380 nM | Vd [18]: 1.3 L/kg | inhibition in vivo at 10 mg/kg (A2780 [41]): 79% | IC50 (Cytochrome P450 2D6): 11.5 µM | bioavailability [42]: 8% | half-life [20]: 276 min | fraction unbound [21]: 0.01 | bioavailability [22]: 64% | clearance [23]: 50 mL/min/kg | AUC(0-t) at 24 h [43]: 33 µM·h | half-life [44]: 156 min | AUC(0-t) at 48 h [45]: 4 µM·h | AUC(0-t) at 24 h [25]: 2.2 µM·h | inhibition in vivo at 10 mg/kg (A2780 [46]): 94% | IC50 (Cytochrome P450 3A4): > 20 µM | half-life [27]: 132 min | hepatocyte CLint [47]: 5.1 µL/min/1e6 cells | Activity (Mus musculus [48]): 10% | AUC (Rattus norvegicus): 41 µM·h | AUC(0-t) at 48 h [28]: 3.9 µM·h | solubility thermodynamic [49]: 5300 µg/mL (≈ 11.5 mM)
